Results as given in patent US20230113609A1, “SSTR5 ANTAGONISTS” (Kallyope, Inc., priority 2019, published 2023).

Biological target: T1, human SSTR5 (Homo sapiens, UniProt P35346)
T1 construct: expressed in transfected cells
Test: Inositol phosphate accumulation assay (IP1 HTRF, antagonist mode)
Format: cell-based
Conditions: CHO-K1 cells co-expressing human SSTR5 with Gqi5, SST28 agonist at concentration generating 90% of full activation
Text: CHO-K1 cells stably co-expressing human SSTR5 with Gqi5 were developed using Jump-In technology from Thermo-Fisher. Gqi5 is the mouse G alpha q protein, that was modified to interact with Gi-coupled GPCRs as described previously (Coward, P.; Chan, S. D.; Wada, H. G.; Humphries, G. M.; Conklin, B. R. Chimeric G proteins Allow a High-Throughput Signaling Assay of Gi-Coupled Receptors. Anal Biochem. 1999, 270(2),242-248).
Co-expression of Gqi5 with SSTR5 allowed monitoring of SSTR5 activity by following IP1 accumulation. The assay was performed in a 384-well plate format using the IP1 assay kit from Cis-Bio in an antagonist mode, i.e., pre-incubation with antagonist following by receptor activation by agonist at a concentration generating 90% of full activation. Frozen cells expressing human SSTR5 were thawed, washed, and then plated in DMEM supplemented with 10% FBS and non-essential amino acids. 40 μL of 2.5×10^5 cells/mL were plated on a Poly D-Lysine coated 384-well white plate. The cells were then incubated for 16 hr. at 37° C/5% CO2. After 16 hour the medium was removed, and 10 μL of stimulation buffer was added to the cells. Test compounds were dissolved in DMSO at concentrations 2000-fold that of the final assay concentrations. 7.5 nLcompound solutions were transferred to the cell plates using a Labcyte Echo® acoustic liquid handler. The plates were then incubated for 15 minutes at 37° C/5%CO2. After the first incubation, 5 μL of 30 nM SST28 were added to the cells, and the cells were incubated for 90 minutes at 37° C/5%CO2. 5 μL of detection buffer (prepared as described in the IP-1 kit) was added to each well, and the plates were incubated at RT for 1 hour.
TR-FRET was measured using a ClarioSTAR plate reader, calculating the ratio between emissions at 665 nm and 620 nm (HTRF ratio). The HTRF ratio for positive (Max) and negative (Min) controls were used to normalize HTRF data and generate values for % inhibition. IC50 and maximal inhibition values were determined using a standard 4-parameter fit.

T1 sequence (P35346 whole entry): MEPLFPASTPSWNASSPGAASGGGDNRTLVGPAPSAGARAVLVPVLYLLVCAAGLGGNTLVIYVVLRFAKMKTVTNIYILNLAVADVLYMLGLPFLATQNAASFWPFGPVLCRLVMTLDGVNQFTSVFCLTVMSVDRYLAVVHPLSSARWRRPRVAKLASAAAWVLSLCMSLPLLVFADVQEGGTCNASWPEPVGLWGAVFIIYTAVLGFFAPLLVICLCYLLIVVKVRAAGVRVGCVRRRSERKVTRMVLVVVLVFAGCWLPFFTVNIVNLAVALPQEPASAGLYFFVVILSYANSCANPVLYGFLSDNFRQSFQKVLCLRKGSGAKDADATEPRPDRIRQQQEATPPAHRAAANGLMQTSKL

| IC50 [nM] | SMILES |
| --- | --- |
| 1000 to 5000 | CCOc1cc(C(=O)OC)c(C2CC2)cc1CN1CCC2(CC1)CC(=O)N(c1ccc(C(=O)NC[C@H](O)[C@@H](O)[C@H](O)[C@H](O)CO)cc1)C2 [Example 37, methyl 2-cyclopropyl-5-ethoxy-4-((3-oxo-2-(4-(((2S,3R,4R,5R)-2,3,4,5,6-pentahydroxyhexyl)carbamoyl)phenyl)-2,8-diazaspiro[4.5]decan-8-yl)methyl)benzoate] |
| ≤ 100 | CCOc1cc(C(=O)OC)c(C2CC2)cc1CN1CCC2(CC1)CC(=O)N(c1ccc(C(=O)NCCO)cc1)C2 [Example 20, methyl 2-cyclopropyl-5-ethoxy-4-((2-(4-((2-hydroxyethyl)carbamoyl)phenyl)-3-oxo-2,8-diazaspiro[4.5]decan-8-yl)methyl)benzoate] |
| ≤ 100 | CCOc1cc(-c2ccc(F)cc2)c(C2CC2)cc1CN1CCC2(CC1)CN(c1ccc(S(=O)(=O)NCCOCCOCCO)cc1)C(=O)O2 [Example 83, 4-(8-((2-cyclopropyl-5-ethoxy-4′-fluoro-[1,1′-biphenyl]-4-yl)methyl)-2-oxo-1-oxa-3,8-diazaspiro[4.5]decan-3-yl)-N-(2-(2-(2-hydroxyethoxy)ethoxy)ethyl)benzenesulfonamide] |
| 100 to 1000 | CCOc1cc(C(=O)OC)c(C2CC2)cc1CN1CCC2(CC1)CC(=O)N(c1ccc(C(=O)NCCCCS(N)(=O)=O)cc1)C2 [Example 51, methyl 2-cyclopropyl-5-ethoxy-4-((3-oxo-2-(4-((4-sulfamoylbutyl)carbamoyl)phenyl)-2,8-diazaspiro[4.5]decan-8-yl)methyl)benzoate] |
| 100 to 1000 | CCOc1cc(-c2ccc(F)cn2)c(C2CC2)cc1CN1CCC2(CC1)CN([C@H]1CC[C@@](C)(C(=O)NCCCS(=O)(=O)O)CC1)C(=O)O2 [compound 88] |
| ≤ 100 | CCOc1cc(-c2ccc(F)cc2)c(C2CC2)cc1CN1CCC2(CC1)CN(C13CC(C(=O)NCCOCCO)(C1)C3)C(=O)O2 [compound 92, 3-(8-((2-cyclopropyl-5-ethoxy-4′-fluoro-[1,1′-biphenyl]-4-yl)methyl)-2-oxo-1-oxa-3,8-diazaspiro [4.5]decan-3-yl)-N-(2-(2-hydroxyethoxy)ethyl)bicyclo [1.1.1] pentane-1-carboxamide] |
| ≤ 100 | CCOc1cc(-c2ccc(F)cn2)c(C2CC2)cc1CN1CCC2(CC1)CN(c1ccc(C(=O)NCCOCCO)cc1)C(=O)N2 [Example 74, 4-(8-(5-cyclopropyl-2-ethoxy-4-(5-fluoropyridin-2-yl)benzyl)-2-oxo-1,3,8-triazaspiro[4.5]decan-3-yl)-N-(2-(2-hydroxyethoxy)ethyl)benzamide] |
| > 5000 | CCOc1cc(C(=O)OC)c(C2CC2)cc1CN1CCC2(CC1)CC(=O)N(c1ccc(C(=O)NCCNC(=O)NCCO)cc1)C2 [compound 13, Methyl 2-cyclopropyl-5-ethoxy-4-[[2-[4-[2-(2-hydroxyethylcarbamoylamino)ethylcarbamoyl]phenyl]-3-oxo-2,8-diazaspiro[4.5]decan-8-yl]methyl]benzoate] |
| 100 to 1000 | CCOc1cc(C(=O)OC)c(C2CC2)cc1CN1CCC2(CC1)CC(=O)N(c1ccc(C(=O)NCCCNC(=N)N)cc1)C2 [Example 55, methyl 2-cyclopropyl-5-ethoxy-4-((2-(4-((3-guanidinopropyl)carbamoyl)phenyl)-3-oxo-2,8-diazaspiro [4.5]decan-8-yl)methyl)benzoate] |
| 100 to 1000 | CCOc1cc(C(=O)OC)c(C2CC2)cc1CN1CCC2(CC1)CC(=O)N(c1ccc(C(=O)NCCNC(N)=O)cc1)C2 [Example 38, methyl 2-cyclopropyl-5-ethoxy-4-((3-oxo-2-(4-((2-ureidoethyl)carbamoyl)phenyl)-2,8-diazaspiro[4.5]decan-8-yl)methyl)benzoate] |
| > 5000 | CCOc1cc(C(=O)OC)c(C2CC2)cc1CN1CCC2(CC1)CC(=O)N(c1ccc(C(=O)NCCCCS(=O)(=O)O)cc1)C2 [Example 31, 4-(4-(8-(5-cyclopropyl-2-ethoxy-4-(methoxycarbonyl)benzyl)-3-oxo-2,8-diazaspiro[4.5]decan-2-yl)benzamido)butane-1-sulfonic acid] |
| 100 to 1000 | CCOc1cc(-c2nc(C)no2)c(C2CC2)cc1CN1CCC2(CC1)CN(c1ccc(C(=O)NCCCS(=O)(=O)O)cc1)C(=O)N2 [Example 68, 3-(4-(8-(5-cyclopropyl-2-ethoxy-4-(3-methyl-1,2,4-oxadiazol-5-yl)benzyl)-2-oxo-1,3,8-triazaspiro[4.5]decan-3-yl)benzamido)propane-1-sulfonic acid] |
| 1000 to 5000 | CCOc1cc(C(=O)OC)c(C2CC2)cc1CN1CCC2(CC1)CC(=O)N(c1ccc(C(=O)N(CCO)CCO)cc1)C2 [Example 34, methyl 4-((2-(4-(bis(2-hydroxyethyl)carbamoyl)phenyl)-3-oxo-2,8-diazaspiro[4.5]decan-8-yl)methyl)-2-cyclopropyl-5-ethoxybenzoate] |
| > 5000 | CCOc1cc(C(=O)OC)c(C2CC2)cc1CN1CCC2(CC1)CC(=O)N(c1ccc(C(=O)N(C)CCCC(=O)O)cc1)C2 [Example 41, 4-(4-(8-(5-cyclopropyl-2-ethoxy-4-(methoxycarbonyl)benzyl)-3-oxo-2,8-diazaspiro[4.5]decan-2-yl)-N-methylbenzamido)butanoic acid] |
| 100 to 1000 | CCOc1cc(C(=O)OC)c(C2CC2)cc1CN1CCC2(CC1)CC(=O)N(c1ccc(C(=O)NCCN3CCNC3=O)cc1)C2 [Example 40, methyl 2-cyclopropyl-5-ethoxy-4-((3-oxo-2-(4-((2-(2-oxoimidazolidin-1-yl)ethyl)carbamoyl)phenyl)-2,8-diazaspiro[4.5]decan-8-yl)methyl)benzoate] |
| ≤ 100 | CCOc1cc(-c2ccc(F)cc2)c(C2CC2)cc1CN1CCC2(CC1)CN(c1ccc(C(=O)NCCCS(=O)(=O)O)cc1)C(=O)O2 [Example 63, 3-(4-(8-((2-cyclopropyl-5-ethoxy-4′-fluoro-[1,1′-biphenyl]-4-yl)methyl)-2-oxo-1-oxa-3,8-diazaspiro[4.5]decan-3-yl)benzamido)propane-1-sulfonic acid] |
| > 5000 | CCOc1cc(C(=O)OC)c(C2CC2)cc1CN1CCC2(CC1)CC(=O)N(c1ccc(C(=O)NCCCN)cc1)C2 [Example 46, methyl 4-((2-(4-((3-aminopropyl)carbamoyl)phenyl)-3-oxo-2,8-diazaspiro[4.5]decan-8-yl)methyl)-2-cyclopropyl-5-ethoxybenzoate] |
| 100 to 1000 | CCOc1cc(C(=O)OC)c(C2CC2)cc1CN1CCC2(CC1)CC(=O)N(c1ccc(C(=O)NC[C@H](O)CO)cc1)C2 [Example 35, methyl (S)-2-cyclopropyl-4-((2-(4-((2,3-dihydroxypropyl)carbamoyl)phenyl)-3-oxo-2,8-diazaspiro[4.5]decan-8-yl)methyl)-5-ethoxybenzoate] |
| ≤ 100 | CCOc1cc(-c2ccc(F)cc2)c(C2CC2)cc1CN1CCC2(CC1)CN(c1ccc(C(=O)NCCOCCOCCO)cc1)C(=O)N2 [Example 70, 4-(8-((2-cyclopropyl-5-ethoxy-4′-fluoro-[1,1′-biphenyl]-4-yl)methyl)-2-oxo-1,3,8-triazaspiro[4.5]decan-3-yl)-N-(2-(2-(2-hydroxyethoxy)ethoxy)ethyl)benzamide] |
| 100 to 1000 | CCOc1cc(C(=O)OC)c(C2CC2)cc1CN1CCC2(CC1)CC(=O)N(c1ccc(C(=O)NCCNC(=O)NC(CO)(CO)CO)cc1)C2 [Example 18, methyl 2-cyclopropyl-4-((2-(4-((2-(3-(1,3-dihydroxy-2-(hydroxymethyl)propan-2-yl)ureido)ethyl)carbamoyl)phenyl)-3-oxo-2,8-diazaspiro[4.5]decan-8-yl)methyl)-5-ethoxybenzoate] |
| > 5000 | CCOc1cc(C(=O)OC)c(C2CC2)cc1CN1CCC2(CC1)CC(=O)N(c1ccc(C(=O)NCCCO)cc1)C2 [Example 27, methyl 2-cyclopropyl-5-ethoxy-4-((2-(4-((3-hydroxypropyl)carbamoyl)phenyl)-3-oxo-2,8-diazaspiro[4.5]decan-8-yl)methyl)benzoate] |
| ≤ 100 | CCOc1cc(-c2ccc(F)cc2)c(C2CC2)cc1CN1CCC2(CC1)CN(c1ccc(C(=O)NCCS(=O)(=O)O)cc1)C(=O)N2 [Example 71, 2-(4-(8-((2-cyclopropyl-5-ethoxy-4′-fluoro-[1,1′-biphenyl]-4-yl)methyl)-2-oxo-1,3,8-triazaspiro[4.5]decan-3-yl)benzamido)ethane-1-sulfonic acid] |
| ≤ 100 | CCOc1cc(-c2ccc(F)cc2)c(C2CC2)cc1CN1CCC2(CC1)CN(c1ccc(C(=O)NCCOC(CO)CO)cc1)C(=O)N2 [Example 73, 4-(8-((2-cyclopropyl-5-ethoxy-4′-fluoro-[1,1′-biphenyl]-4-yl)methyl)-2-oxo-1,3,8-triazaspiro[4.5]decan-3-yl)-N-(2-((1,3-dihydroxypropan-2-yl)oxy)ethyl)benzamide] |
